Measured values reported in patent US11202773B2, “Locally bioavailable drugs” (UNIVERSITY OF HOUSTON SYSTEM, priority 2015, dated 2021).

Experiments:
[1] = rat, in vivo
Method: For this purpose, blood samples were collected from each rat every hour during the perfusion period, and the bile samples were also collected by cannulating the bile duct.
By comparing the 6a1 concentrations in the input and output perfusate containing β-CD-formulated 6a1, the amounts of 6a1 absorbed from the colon were calculated for each hour during the perfusion period (FIG. 10B).

rat liver microsomes = assay: Glucuronidation by rat liver microsomes; format: in vitro ADME
Method: (§1) FIG. 5A is a bar graph illustrating in vitro metabolism of phenolics via glucuronidation pathway. Glucuronidation rates of all the new locally bioavailable COX-2 inhibitors by rat liver microsomes. Additional metabolic rates of various locally bioavailable COX-2 inhibitors are in Table 3. […]. The incubation systems were: for glucuronidation, 0.88 mM magnesium chloride (MgCl2), 4.4 mM saccharolactone, 0.022 mg/mL alamethicin, 3.5 mM uridine 5′-diphospho-glucuronic acid (UDPGA), 10 μM substrates and different concentrations of microsomes in 50 mM potassium phosphate buffer (pH 7.4); for sulfation, 10 mM dithiothreitol (DTT), 5 mM MgCl2, 100 μM 3′-phosphoadenosine-5′-phosphosulfate (PAPS),10 μM substrate and different concentrations of S9 fractions in 50 mM potassium phosphate buffer (pH 7.4).
(§2) In vitro tools were employed to help predict the in vivo metabolism rates of the COX-2 inhibitors that are phenolics. The microsomes and S9 fractions prepared from colon or liver were used to determine the in vivo glucuronidation and sulfation rates of the phenolic compounds, respectively. By employing microsomes and S9 fractions prepared from both rats and humans, it could be determined if the results obtained in the rat model could be reasonably extrapolated to humans. In these experiments, raloxifene and genistein, two phenolic compounds which undergo extensive first-pass metabolism, were selected as controls.

recombinant human COX-1 = recombinant human COX-1 (Homo sapiens, UniProt P23219); assay: In vitro enzyme assay, recombinant human COX-1; format: biochemical; conditions: read-out: IC50 against recombinant human COX-1
[2] = Solubility in HBSS with or without β-cyclodextrin; format: physicochemical
rat colon microsomes = assay: Glucuronidation by rat colon microsomes; format: in vitro ADME
Method: as §1, with “5B” for “5A”, “glucuronidation” for “metabolism”, “in liver and colon microsomes of rats.” for “via glucuronidation pathway.”, “6a1-6a4” for “all the new locally bioavailable COX-2 inhibitors”, “and colon microsomes were measured.” for “microsomes.”, “(PAPS), 10” for “(PAPS),10”
as §2

human Colon S9 [3] = assay: Sulfation by human colon S9; format: in vitro ADME; conditions: substrate 10 μM
Method: as §1, with “FIG. 5D” for “FIG. 5A”, “of phenolics.” for “of phenolics via glucuronidation pathway.”, “of 6a1-6a4” for “of all the new locally bioavailable COX-2 inhibitors”, “by human” for “by rat”, “liver and intestinal” for “liver”, “Table 4.” for “Table 3.”
as §2

Caco-2 cell monolayer = assay: Metabolism and transport across Caco-2 cell monolayers; format: in vitro ADME, human; conditions: 0-8 hours
Method: The Caco-2 cell monolayer is a well-established FDA-recognized model to study the absorption, transport, and metabolism of drugs in the human gastrointestinal tract. This allows for prediction of the disposition of the new compounds in colonic epithelium that is also undergoing carcinogenesis, because Caco-2 is a human colorectal cancer cell line.
After 10 μM 6a1 was applied to the apical or basolateral side of the Caco-2 monolayer model, the concentrations of 6a1 and its main phase II metabolites, glucuronide and sulfate, were monitored at both sides (FIG. 6A-D). The concentration of aglycone was also monitored at both sides. […] The majority of sulfates were effluxed to the apical side, while less was transported to the basolateral side. The amount of glucuronide generated by Caco-2 cells was much less than that of sulfates. The glucuronide was also transported to both sides.

human Colon S9 [4] = assay: Glucuronidation by human colon S9; format: in vitro ADME; conditions: substrate 10 μM
Method: as §1, with “FIG. 5D” for “FIG. 5A”, “of phenolics.” for “of phenolics via glucuronidation pathway.”, “of 6a1-6a4” for “of all the new locally bioavailable COX-2 inhibitors”, “by human” for “by rat”, “liver and intestinal” for “liver”, “Table 4.” for “Table 3.”
as §2, with “The microsomes and S9 fractions prepared from colon or liver were used to determine the in vivo glucuronidation and sulfation rates of the phenolic compounds, respectively.” left out

Raw264.7 cells = assay: Metabolism of the phenolics by Raw264.7 cells; format: in vitro ADME, mouse; conditions: 1 μM compound, 14 hours
Method: FIG. 4A is a bar graph illustration of the metabolism of the phenolics by Raw264.7 cells. Raw264.7 cells were incubated with 0.1 μg/mL LPS and 1 μM 6a1, 6a2 or 6a3, respectively. 14 hours later the concentrations of PGD2, the phenolics (i.e., aglycones, solid bars), and their phase II metabolites (open bars for glucuronides and shade bars for sulfates) were determined in the medium. Less PGD2 production means inhibition of COX-2 enzyme.
Glucuronidation of 6a1 in Raw264.7 cells was not influenced by LPS (FIG. 4B). […] The results of these experiments initially indicate that when characterizing inhibitory effects of the phenolics on COX-2, the importance of metabolic stability should be brought into consideration. This could be why phenolics were not considered to be active against COX-2 in many published reports using cellular COX-2 assays.

[5] = rat, in vivo, po, 20 mg/kg
Method: The drugs were dispersed in ORA-PLUS® suspension vehicle (from Paddock Laboratories, Minneapolis, Minn.) and administrated to SD rats by oral gavage. The blood samples were collected from the tail tips at different time points.
Therefore, 20 mg/kg 6a1 was administered in suspension vehicle to the proximal colon of SD rats via a catheter reaching approximately 8 cm deep into the anus.

Sequence of recombinant human COX-1 (P23219 24-599): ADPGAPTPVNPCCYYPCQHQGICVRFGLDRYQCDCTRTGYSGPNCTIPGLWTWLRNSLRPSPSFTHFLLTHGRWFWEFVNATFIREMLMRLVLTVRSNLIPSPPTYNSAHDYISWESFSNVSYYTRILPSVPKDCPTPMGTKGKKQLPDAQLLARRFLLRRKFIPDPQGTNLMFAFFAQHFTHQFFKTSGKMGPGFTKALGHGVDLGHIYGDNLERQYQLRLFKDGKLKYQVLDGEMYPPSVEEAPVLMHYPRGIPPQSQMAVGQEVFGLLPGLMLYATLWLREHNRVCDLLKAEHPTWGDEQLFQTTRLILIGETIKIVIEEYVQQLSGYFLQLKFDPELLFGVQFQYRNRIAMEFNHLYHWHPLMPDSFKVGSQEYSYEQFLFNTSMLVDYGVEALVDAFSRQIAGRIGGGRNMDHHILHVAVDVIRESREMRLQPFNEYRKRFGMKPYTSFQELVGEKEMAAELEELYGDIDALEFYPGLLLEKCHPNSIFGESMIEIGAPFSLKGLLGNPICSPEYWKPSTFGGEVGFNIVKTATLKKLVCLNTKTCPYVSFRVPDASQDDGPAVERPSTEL

| 6a1-glucuronide concentration in bile [1] | Absorbed amount recovered from bile as glucuronides [1] | Fraction absorbed in the colon that escaped first-pass metabolism in the liver [1] | Fraction of total perfused amount absorbed in the colon [1] | Glucuronidation by rat liver microsomes (FIG. 5A) (rat liver microsomes) | Glucuronidation rates by liver microsomes (Mean) (rat liver microsomes) [pmol/mg/min] | IC50 (recombinant human COX-1) [µM] | Osmotic pressure of the solution ([2]; 6a1 in HBSS with 4 mM β-CD) [mOsm/kg] | Solubility in HBSS ([2]; in the presence of 4 mM β-CD, after sonication and centrifuge) [µM] | Glucuronidation rates by colon microsomes (Mean) (rat colon microsomes) [pmol/mg/min] | Sulfation rates by human Colon S9 (Mean) (human Colon S9 [3]) [pmol/mg/min] | Phase II conjugation inside Caco-2 cells (Caco-2 cell monolayer; 10 μM) | Glucuronidation rates by human Colon S9 (Mean) (human Colon S9 [4]) [pmol/mg/min] | Peak blood concentration [5] [µM] | SMILES | Permeation of the Caco-2 cell membrane (Caco-2 cell monolayer; 10 μM applied to apical or basolateral side) | Form recovered in medium at the end of incubation (Raw264.7 cells) |
| --- | --- | --- | --- | --- | --- | --- | --- | --- | --- | --- | --- | --- | --- | --- | --- | --- |
| more than 200 μM | approximately 75% | less than 1% | Approximately 13% | rapidly glucuronidated | 6299 | 5.13 | 290 | 70 | 1111 | 110 | rapidly conjugated by UGTs and SULTs | 1080 |  | Cc1ccc(-c2cc(COc3ccccc3O)nn2-c2ccc(S(N)(=O)=O)cc2)cc1 [Compound 6a1] | permeated the Caco-2 cell membrane easily | recovered exclusively as their glucuronides |
|  |  |  |  | rapidly glucuronidated | 3570 | 27.2 |  |  | 1199 |  |  |  |  | Cc1ccc(-c2cc(COc3cccc(O)c3)nn2-c2ccc(S(N)(=O)=O)cc2)cc1 [Compound 6a2] |  | recovered exclusively as their glucuronides |
|  |  |  |  |  | 590 | 38.2 |  |  | 301 |  |  |  | 1.69 | Cc1ccc(-c2cc(COc3ccc(O)cc3)nn2-c2ccc(S(N)(=O)=O)cc2)cc1 [Compound 6a3] |  | stayed as aglycone |
